Like-named read-outs stand apart in the source and are kept apart here.
How the values were obtained:
ubiquitin isopeptidases [1] = experiment: Ubiquitin isopeptidase activity, Ub-PEST substrate, lysates of treated RKO and HCT 116 cells; format: cell-based, human; settings: cells treated 6, 20 or 60 μM, 12 h
Protocol: A) Inhibition of isopeptidase proteolysis of Ub-PEST substrate. RKO and HCT 116 cells were treated with DMSO vehicle, 6, 20, or 60 μM of Δ12-PGJ2, DBA, NSC-302979, or curcumin, 60 μM PGB1, 60 μM NSC-156236, or 60 μM DPTP for 12 h, 37° C. Cell lysates from each treatment were incubated with Ub-PEST, as described in materials and methods. Samples were fractionated by SDS-PAGE and proteins detected with ubiquitin epitopes immunochemically (HCT 116 ^+/+ western blot shown as example of raw data). […] B) Inhibition of isopeptidase activity by test panel compounds. Isopeptidase activity was determined by measuring via densitometry, the amount of Ub generated by isopeptidase cleavage of Ub-PEST. Bar graph patterns are DMSO vehicle (black), Δ12-PGJ2 (hatched), DBA (horizontal lines), NSC-302979 (white), PGB1 (diagonally downward right lines), and NSC-156236 (diagonally downward left lines). The amount of Ub generated in the vehicle treated sample (panel A, lane 2) is arbitrarily designated 100%.
Cellular isopeptidase enzymatic activity was measured with two assays that used different substrates. In one assay ubiquitin-PEST (Ub-PEST) was used, a full-length ubiquitin molecule with an 18 amino acid c-terminal peptide extension (total mass=10.5 kDa). Ubiquitin isopeptidases specifically cleave the 18 amino acid peptide extension, releasing full-length ubiquitin (8.5 kDa).
Briefly, 6×10^5 cells were incubated with 0-60 μM of test compounds for 12 hrs. Cells were lysed in 50 μL of 25 mM HEPES, 5 mM EDTA, 0.1% CHAPS, 5 mM ATP, pH 7.5. The protein concentration of each sample was adjusted to 0.3 mg/mL and incubated with 50 μg/mL Ub-PEST for 45 minutes at 25° C. Under these conditions, Ub-PEST hydrolysis occurs at a linear rate. 20 μL samples were mixed with 20 μL 2× Laemmli buffer, boiled briefly, and fractionated by SDSPAGE. Isopeptidase activity was monitored by determining the amount of product (8.5 kDa ubiquitin) formation.

ubiquitin isopeptidases [2] = experiment: Ubiquitin isopeptidase activity, z-LRGG-AMC substrate, lysates of treated RKO and HCT 116 cells; format: cell-based, human; settings: cells treated 6, 20 or 60 μM, 12 h
Protocol: RKO (upper) and HCT 116 ^+/+ cells (lower) were treated with DMSO vehicle, 6, 20, or 60 μM of Δ12-PGJ2, DBA, NSC-302979, or curcumin, 60 μM PGB1, 60 μM NSC-156236, or 60 μM DPTP for 12 h at 37° C. Cell lysates (0.5 mg/mL) from each treatment were incubated with the isopeptidase substrate, z-LRGG-AMC, for 3 h, 37° C. The amount of AMC cleaved by isopeptidase was determined fluorometrically, as described in Materials and Methods.
The second assay used a fluorescent tetrapeptide, z-LRGG-AMC, as a substrate that mimics the carboxy-terminus of ubiquitin. Isopeptidase activity hydrolyzes the bond between the c-terminal glycine and the fluorophore. This tetrapeptide also undergoes slow proteolysis by the catalytic subunit of the proteasome. To minimize this background rate of proteolysis cell lysates were incubated with 30 μM MG115 for 30 minutes at 4° C., prior to substrate incubation (>90% proteasome inhibition). Cells were teeated as above, lysed in 250 μL of lysis buffer per sample, and adjusted protein concentration to 0.5 mg/mL prior to incubation with MG115. Next, z-LRGG-AMC substrate was added and fluorescence was quantified of the AMC moiety cleaved by isopeptidase action.

[3] = tested on: polyubiquitin conjugates in RKO-E6 cells; experiment: Accumulation of polyubiquitin in RKO-E6 cells (immunoblot); format: cell-based, human; settings: EC80 or 60 μM, 6-24 h
Protocol: (§1) A) Accumulation of polyubiquitin. RKO-E6 cells were treated with DMSO vehicle for 24 h, 37° C., or with the concentrations of test compounds that gave 80% cell death (as determined by cell viability assay at 48 h) for 6, 12, or 24 h, 37° C. […] Schematic depicting p53 degradation via the proteasome pathway in RKO cells versus RKO-E6 cells. The activity of the HPV E6 oncoprotein hastens p53 degradation in RKO-E6 cells. ii. RKO and RKO-E6 cells were treated with vehicle, etoposide (50 μM), MG115 (20 μM), Δ12-PGJ2 (60 μM), NSC-302979 (20 μM, DBA (20 μM), curcumin (60 μM), PGB1 (60 μM), NSC-156236, (60 XM)or DPTP 60 μM for 6 h, 37° C. Lysates were fractionated by SDS-PAGE and their p53 content determined immunochemically. iii. p53 levels were measured by densitometry and the ratio of p53 protein in RKO-E6 cells/RKO cells calculated.
(§2) The medium was removed and cells lysed in 50 mM Tris, pH 7.4, 100 mM NaCl, 2 mM EDTA with 0.1% SDS, 0.1% deoxycholate, 1× complete protease inhibitor mixture. Protein concentration was measured by the Bradford method. Equal portions of the total cell lysate were fractionated from each sample (12.5 μg of protein) by SDS-PAGE. Proteins were transferred to poly(vinylidene difluoride) blocked with 5% (w/v) nonfat dry milk in Trisbuffered saline [20 mM Tris-HCl, pH 7.5, 100 mM sodium chloride, 0.1% (v/v) Tween 20]. Proteins were detected immunochemically by using primary antibodies directed against p53 (1:4000) or ubiquitin (1:1000), followed by horseradish peroxidase-conjugated secondary antibodies (1:4000). Antigen-antibody complexes were detected with enhanced chemiluminescence reagents. Gels were scanned and quantified intensities using Kodak 1D Image Analysis Software.

p53 = p53 accumulation, ratio RKO-E6 cells/RKO cells (immunoblot, densitometry); format: cell-based, human; settings: 6 h; etoposide 50 μM, MG115, NSC-302979, DBA 20 μM, others 60 μM
Protocol: as §1, §2

[4] = tested on: cell lines with Wild type p53; settings: cited from earlier work
[5] = tested on: cell lines with mutant/deleted p53; settings: mean of 41-42 cell lines with mutant/deleted p53, cited from earlier work
RKO cells = experiment: MTT cell viability assay, RKO cells; settings: 48 h; for cell death in RKO compared with RKO-E6 cells: isogenic pair; for EC50: read-out: Cytotoxic Potency (EC50) RKO
RKO-E6 cells = experiment: MTT cell viability assay, RKO-E6 cells; settings: for EC50: read-out: Cytotoxic Potency (EC50) RKO-E6
HCT 116 +/+ cells = experiment: MTT cell viability assay, HCT 116 p53 +/+ cells; settings: for cell death in HCT 116 +/+ compared with HCT 116 −/− cells: isogenic pair; for EC50: read-out: Cytotoxic Potency (EC50) HCT +/+
Protocol: Cell viability was measured with MTT reagent as described in materials and methods.
Cell viability was detected by the MTT assay. Briefly, 1×10^5 cells were incubated per well of a sterile, 96-well assay plate with 0-60 μM of test compounds for 48 hours. MTT reagent was added to each well, final concentration of 0.5 mg/mL, and incubated for an additional 3 hours. The media was aspirated and remaining MTT reagent from each well and added 100 μL of HCl:isopropanol (1:24). The absorbance of each sample was measured at 405 nm.

HCT 116 −/− cells = experiment: MTT cell viability assay, HCT 116 p53 −/− cells; settings: read-out: Cytotoxic Potency (EC50) HCT −/−
ubiquitin isopeptidases [6] = experiment: In vitro isopeptidase activity in HCT 116 lysates, Ub-PEST; format: biochemical, human; settings: HCT 116 lysates, 45 min
Protocol: Isopeptidase Assay. It was hypothesized that the punaglandins would inhibit ubiquitin-isopeptidase activity of the proteasome pathway as does the prostaglandin, Δ^12-PGJ2 (1), but with greater potency because of the chlorinated C-10. To validate this theory, cellular isopeptidase enzymatic activity was measured in vitro after treatment with individual punaglandins, PNG 2 (6), PNG 3 (7), and Z-PNG 4 (9) and in vivo after individual treatment with PNG 4 (8) and PNG 6 (10). This activity was determined utilizing the simple isopeptidase substrate, ubiquitin-PEST (Ub-PEST), a full/length ubiquitin (Ub) molecule fused with an 18-amino acid C-terminal peptide extension that most isopeptidases use as a substrate. The polypeptide extension contains regions rich in Pro (P), Glu (E), Ser (S), and Thr (T) residues called PEST motifs that are responsible for rapid degradation of these and other unstable proteins. Ub isopeptidases specifically cleave this peptide extension, yielding free, full-length Ub. Both the fused Ub-PEST (10.5 kDa) and the cleaved, free Ub (8.5 kDa) can be observed via immunochemical detection.
In Vitro Isopeptidase Activity. PNG 2 (6), PNG 3 (7), and Z-PNG 4 (9) were initially analyzed for isopeptidase activity in vitro in HCT 116 lysates. Cells were lysed with isopeptidase activity buffer and protein concentration adjusted to 0.3 mg/mL per sample. Each sample was subsequently incubated with 2 μM, 6 μM, 20 μM, 60 μM, or 200 μM of PNG 2 (6), PNG 3 (7), Z-PNG 4 (9), Δ^12-PGJ2 (1), and PGA1 (2) in addition to 50 μg/ml of Ub-PEST. Negative control cells were treated with vehicle (0.5% DMSO) and equivalent Ub-PEST. […] The amount of fused Ub-PEST and free Ub product was determined by SDS-PAGE fractionation.

HCT 116 (p53 wt) = experiment: MTS cytotoxicity, HCT 116 (p53 wt); format: cell-based; settings: Homo sapiens, 48 h
Text: (§3) Cytotoxicity in Human Colon Tumor (HCT) Cell Lines. To determine if punaglandins elicit cytotoxicity independently of the tumor-suppressor p53, as do other dienone prostaglandins, several cytotoxicity assays were employed. First, cell death effects of all isolated punaglandins were investigated in pairs of isogenic colon cancer cell lines, the HCT 116^+/+ competent cell line and HCT 116^−/− null cell lines. HCT 116^+/+ cells are homozygous for p53^+/+ and p21^+/+; where as, HCT 116^−/− cells lack both alleles for p53 (p53^−/−) or p21 (p21^−/−).
(§4) Each cell line was seeded simultaneously in 96-well plates and incubated for 24 h before treatment with individual punaglandins at various concentrations for 48 additional h. Cytotoxicity was determined using MTS and absorbances were recorded at 490 nm. Half maximal effective concentrations (EC50) and Log EC50s were calculated from a concentration-response curve generated using GraphPad Prism (Table 1).

HCT 116 (p53^−/−) = experiment: MTS cytotoxicity, HCT 116 (p53−/−); format: cell-based; settings: Homo sapiens, log of EC50 in μM, 48 h, read-out: Log EC50 +/− Standard Error of Log EC50, HCT 116 (p53−/−) (converted)
Text: as §3, §4

HCT 116 (p21 wt) = experiment: MTS cytotoxicity, HCT 116 (p21 wt); format: cell-based; settings: Homo sapiens, log of EC50 in μM, 48 h, read-out: Log EC50 +/− Standard Error of Log EC50, HCT 116 (p21 wt) (converted)
Text: as §3, §4

HCT 116 (p21^−/−) = experiment: MTS cytotoxicity, HCT 116 (p21−/−); format: cell-based; settings: Homo sapiens, log of EC50 in μM, 48 h, read-out: Log EC50 +/− Standard Error of Log EC50, HCT 116 (p21−/−) (converted)
Text: as §3, §4

COc1cc(/C=C/C(=O)CC(=O)/C=C/c2ccc(O)c(OC)c2)ccc1O [Curcumin, curcumin]
inhibition of isopeptidase cleavage of Ub-PEST (ubiquitin isopeptidases [1]): inhibited isopeptidase activity in a concentration dependent manner | inhibition of z-LRGG-AMC hydrolysis by ubiquitin isopeptidases (ubiquitin isopeptidases [2]): inhibited ubiquitin isopeptidase activity | cellular accumulation of polyubiquitin conjugates [3]: protein species with polyubiquitin conjugation accumulated in cells | ratio of p53 protein [RKO-E6 cells/RKO cells] (p53): approached unity | p53 dependence in NCI 60 cell line cancer screening data ([4]; analysis according to O'Connor et al., 1997): act independently of p53 | CC50 ([5]; read-out: Mutant p53 Mean LC50): 68 µM | cell death in RKO compared with RKO-E6 cells (RKO cells; MTT): caused cell death with equal potency and efficacy | EC50 (RKO cells; Homo sapiens, RKO): 12.5 ± 5.9 µM | EC50 (RKO-E6 cells; Homo sapiens, RKOE6, 48 h): 14.9 ± 8.5 µM | EC80, concentration that gave 80% cell death (RKO-E6 cells; cell viability assay at 48 h, RKO-E6 cells): 17 µM | cell death in HCT 116 +/+ compared with HCT 116 −/− cells (HCT 116 +/+ cells; 48 h, MTT): caused cell death with equal potency | EC50 (HCT 116 +/+ cells; Homo sapiens, HCT-116, 48 h): 9.7 ± 1.1 µM | EC50 (HCT 116 −/− cells; Homo sapiens, HCT-116, 48 h): 8.6 ± 1.3 µM

CC1=CC(=O)C2=C(C)CCC3C(C)C(=O)OC3C12 (stereo not drawn) [NSC-156236, achillin]
inhibition of isopeptidase cleavage of Ub-PEST (ubiquitin isopeptidases [1]): did not inhibit isopeptidase activity | inhibition of z-LRGG-AMC hydrolysis by ubiquitin isopeptidases (ubiquitin isopeptidases [2]): did not | cellular accumulation of polyubiquitin conjugates [3]: did not cause appreciable cellular accumulation of ubiquitin conjugates | ratio of p53 protein [RKO-E6 cells/RKO cells] (p53): significantly less than unity | cytotoxic activity in NCI 60 cell line cancer screening data [4]: no appreciable cytotoxic activity | Wild Type p53 Mean LC50 ([4]; mean of 18 cell lines with wild type p53): Inactive | Mutant p53 Mean LC50 [5]: Inactive | cell death in RKO compared with RKO-E6 cells (RKO cells; MTT): did not cause significant cell death | EC50 (RKO cells; MTT): > 60 µM | EC50 (RKO-E6 cells; 48 h, MTT): > 60 µM | cell death in HCT 116 +/+ compared with HCT 116 −/− cells (HCT 116 +/+ cells; 48 h, MTT): did not cause significant cell death | EC50 (HCT 116 +/+ cells; 48 h, MTT): > 60 µM | EC50 (HCT 116 −/− cells; 48 h, MTT): > 60 µM

CC/C=C\C/C=C\C[C@@]1(O)C=C(Cl)C(=O)/C1=C/[C@H](OC(C)=O)[C@H](CCCC(=O)OC)OC(C)=O [PNG 3]
concentration at which inhibition of Ub-PEST degradation is initially observed (ubiquitin isopeptidases [6]): 20 µM | concentration of complete (total) inhibition of Ub-PEST degradation (ubiquitin isopeptidases [6]): 60 µM | EC50 (HCT 116 (p53 wt); average over the three compounds, read-out: average EC50 of PNG 3, PNG 4 and PNG 6, cytotoxicity in HCT 116 cell lines): ~0.35 µM | EC50 (HCT 116 (p53 wt); log of EC50 in μM, read-out: Log EC50 +/− Standard Error of Log EC50, HCT 116 (p53 wt) (converted)): 0.324 µM | EC50 (HCT 116 (p53^−/−)): 0.372 µM | EC50 (HCT 116 (p21 wt)): 0.288 µM | EC50 (HCT 116 (p21^−/−)): 0.295 µM

Source: patent publication US20060106099A1, “Novel inhibitors of ubiquitin isopeptidases” (priority 2002, published 2006)
